Measurements: ChEMBL document CHEMBL1148514, “Development of lipopeptides for inhibiting 20S proteasomes” (Bioorg Med Chem Lett, 2006)
Residues, ends and D or L forms follow the SMILES beside them.

How the values were obtained:
[1] = biological target: T1, Proteasome Macropain subunit PRE2 (Saccharomyces cerevisiae S288c) (UniProt P30656); test: Inhibition of chymotrypsin like activity of yeast 20S proteasome at 80 uM
T1 sequence (whole entry): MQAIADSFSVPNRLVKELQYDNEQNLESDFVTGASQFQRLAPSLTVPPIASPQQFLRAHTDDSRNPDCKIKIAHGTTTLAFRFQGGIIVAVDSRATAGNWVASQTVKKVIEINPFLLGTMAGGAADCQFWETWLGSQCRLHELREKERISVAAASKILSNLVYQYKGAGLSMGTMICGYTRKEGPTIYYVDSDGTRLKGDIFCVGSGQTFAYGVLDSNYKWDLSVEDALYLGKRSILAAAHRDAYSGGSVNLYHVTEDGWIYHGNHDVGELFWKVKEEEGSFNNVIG

[2] = biological target: T2, Proteasome Macropain subunit (Saccharomyces cerevisiae S288c) (UniProt P22141); test: Inhibition of trypsin like activity of yeast 20S proteasome at 80 uM
T2 sequence (whole entry): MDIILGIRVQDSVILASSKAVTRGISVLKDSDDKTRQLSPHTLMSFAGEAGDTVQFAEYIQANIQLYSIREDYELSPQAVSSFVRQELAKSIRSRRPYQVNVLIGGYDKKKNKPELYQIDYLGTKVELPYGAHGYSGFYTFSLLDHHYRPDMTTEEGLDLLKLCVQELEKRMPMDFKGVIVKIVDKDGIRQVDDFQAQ

[3] = biological target: T3, Proteasome component C5 (Saccharomyces cerevisiae S288c) (UniProt P23724); test: Inhibition of post acid activity of yeast 20S proteasome at 80 uM
T3 sequence (whole entry): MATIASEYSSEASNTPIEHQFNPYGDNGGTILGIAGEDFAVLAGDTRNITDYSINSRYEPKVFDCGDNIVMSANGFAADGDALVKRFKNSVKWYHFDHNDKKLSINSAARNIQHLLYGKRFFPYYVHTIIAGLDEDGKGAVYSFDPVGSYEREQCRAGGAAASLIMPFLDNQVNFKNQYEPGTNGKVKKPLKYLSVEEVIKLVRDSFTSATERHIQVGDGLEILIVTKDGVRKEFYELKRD

[4] = biological target: T4, Proteasome Macropain subunit PRE2 (Saccharomyces cerevisiae S288c, UniProt P30656); test: Inhibition of chymotrypsin like activity of yeast 20S proteasome
T4 sequence (P30656 whole entry): T1 sequence (whole entry)

[5] = biological target: T5, Proteasome Macropain subunit (Saccharomyces cerevisiae S288c, UniProt P22141); test: Inhibition of trypsin like activity of yeast 20S proteasome
T5 sequence (P22141 whole entry): T2 sequence (whole entry)

Proteasome component C5 = biological target: T6, Proteasome component C5 (Saccharomyces cerevisiae S288c, UniProt P23724); test: Inhibition of post acid activity of yeast 20S proteasome
T6 sequence (P23724 whole entry): T3 sequence (whole entry)

[6] = biological target: T3, Proteasome component C5 (Saccharomyces cerevisiae S288c); test: Activation of post acid activity of yeast 20S proteasome
[7] = biological target: T2, Proteasome Macropain subunit (Saccharomyces cerevisiae S288c); test: Inhibition of trypsin like activity of yeast 20S proteasome at 625 uM

Ki (Proteasome component C5) [µM] | Compound | inhibition [2] [%] | Ki [4] [µM] | other results
– | CCCCCCCCCCCCCCC(N)C(=O)O (stereo not given) | < 10 | – | inhibition [1]: < 10%; inhibition [3]: < 10%
– | CCCCCCCCCCCCCCCC(=O)OC | < 10 | – | inhibition [1]: < 10%; inhibition [3]: < 10%
– | N[C@@H](Cc1ccc(O)cc1)C(=O)N[C@@H](CCC(=O)O)C(=O)N[C@@H](CC(=O)O)C(=O)O (H-Tyr-Glu-Asp-OH) | < 10 | – | inhibition [1]: < 10%; inhibition [3]: < 10%
– | CC(C)C[C@H](NC(=O)[C@H](CCC(=O)O)NC(=O)[C@@H](N)Cc1ccc(O)cc1)C(=O)O (H-Tyr-Glu-Leu-OH) | < 10 | – | inhibition [1]: < 10%; inhibition [3]: < 10%
– | CCCCCC(=O)N[C@H](C(=O)N[C@H](C(=O)N[C@H](C(=O)N[C@@H](Cc1ccccc1)C(=O)N[C@@H](CC(=O)O)C(=O)N[C@@H](Cc1ccc(O)cc1)C(=O)O)[C@@H](C)O)[C@@H](C)CC)[C@@H](C)O (HELM PEPTIDE1{[CCCCCC(=O)[*:2]].T.I.T.F.D.Y}$$$$V2.0) | < 10 | 34 | inhibition [3]: < 10%
– | CCCCCC(=O)N[C@H](C(=O)N[C@H](C(=O)N[C@H](C(=O)N[C@@H](Cc1ccccc1)C(=O)N[C@@H](CCCCN)C(=O)N[C@@H](Cc1ccccc1)C(=O)O)[C@@H](C)O)C(C)C)[C@@H](C)O (HELM PEPTIDE1{[CCCCCC(=O)[*:2]].T.V.T.F.K.F}$$$$V2.0) | < 10 | 43 | inhibition [3]: < 10%
– | CCCCCC(=O)N[C@H](C(=O)N[C@H](C(=O)N[C@H](C(=O)N[C@@H](Cc1ccc(O)cc1)C(=O)N[C@@H](CCCCN)C(=O)N[C@@H](Cc1ccccc1)C(=O)O)[C@@H](C)O)C(C)C)[C@@H](C)O (HELM PEPTIDE1{[CCCCCC(=O)[*:2]].T.V.T.Y.K.F}$$$$V2.0) | – | 80 | Ki [5]: 315 µM; inhibition [3]: < 10%
59 | CCCCCC(=O)N[C@@H](Cc1ccc(O)cc1)C(=O)N[C@@H](CCC(=O)O)C(=O)N[C@@H](CC(C)C)C(=O)O (HELM PEPTIDE1{[CCCCCC(=O)[*:2]].Y.E.L}$$$$V2.0) | < 10 | > 80 | –
– | CCCCCCCC(=O)N[C@H](C(=O)N[C@H](C(=O)N[C@H](C(=O)N[C@@H](Cc1ccccc1)C(=O)N[C@@H](CCCCN)C(=O)N[C@@H](Cc1ccccc1)C(=O)O)[C@@H](C)O)C(C)C)[C@@H](C)O (HELM PEPTIDE1{[CCCCCCCC(=O)[*:2]].T.V.T.F.K.F}$$$$V2.0) | – | > 80 | –
– | CCCCCCCCCC(=O)N[C@H](C(=O)N[C@H](C(=O)N[C@H](C(=O)N[C@@H](Cc1ccccc1)C(=O)N[C@@H](CC(=O)O)C(=O)N[C@@H](Cc1ccc(O)cc1)C(=O)O)[C@@H](C)O)[C@@H](C)CC)[C@@H](C)O (HELM PEPTIDE1{[CCCCCCCCCC(=O)[*:2]].T.I.T.F.D.Y}$$$$V2.0) | – | 37 | –
– | CCCCCCCCCC(=O)N[C@H](C(=O)N[C@H](C(=O)N[C@H](C(=O)N[C@@H](Cc1ccccc1)C(=O)N[C@@H](CCCCN)C(=O)N[C@@H](Cc1ccccc1)C(=O)O)[C@@H](C)O)C(C)C)[C@@H](C)O (HELM PEPTIDE1{[CCCCCCCCCC(=O)[*:2]].T.V.T.F.K.F}$$$$V2.0) | – | 28 | –
– | CCCCCCCCCC(=O)N[C@H](C(=O)N[C@H](C(=O)N[C@H](C(=O)N[C@@H](Cc1ccc(O)cc1)C(=O)N[C@@H](CCCCN)C(=O)N[C@@H](Cc1ccccc1)C(=O)O)[C@@H](C)O)C(C)C)[C@@H](C)O (HELM PEPTIDE1{[CCCCCCCCCC(=O)[*:2]].T.V.T.Y.K.F}$$$$V2.0) | < 10 | 72 | Activity [6]: 1.2
72 | CCCCCCCCCC(=O)N[C@@H](Cc1ccc(O)cc1)C(=O)N[C@@H](CCC(=O)O)C(=O)N[C@@H](CC(C)C)C(=O)O (HELM PEPTIDE1{[CCCCCCCCCC(=O)[*:2]].Y.E.L}$$$$V2.0) | < 10 | – | inhibition [1]: < 10%
> 80 | CCCCCCCCCCCC(=O)N[C@H](C(=O)N[C@H](C(=O)N[C@H](C(=O)N[C@@H](Cc1ccccc1)C(=O)N[C@@H](CC(=O)O)C(=O)N[C@@H](Cc1ccc(O)cc1)C(=O)O)[C@@H](C)O)[C@@H](C)CC)[C@@H](C)O (HELM PEPTIDE1{[CCCCCCCCCCCC(=O)[*:2]].T.I.T.F.D.Y}$$$$V2.0) | – | > 80 | Ki [5]: > 80 µM
– | CCCCCCCCCCCC(=O)N[C@H](C(=O)N[C@H](C(=O)N[C@H](C(=O)N[C@@H](Cc1ccc(O)cc1)C(=O)N[C@@H](CCCCN)C(=O)N[C@@H](Cc1ccccc1)C(=O)O)[C@@H](C)O)C(C)C)[C@@H](C)O (HELM PEPTIDE1{[CCCCCCCCCCCC(=O)[*:2]].T.V.T.Y.K.F}$$$$V2.0) | – | > 80 | Ki [5]: 68 µM; Activity [6]: 1.2
62 | CCCCCCCCCCCC(=O)N[C@@H](Cc1ccc(O)cc1)C(=O)N[C@@H](CCC(=O)O)C(=O)N[C@@H](CC(C)C)C(=O)O (HELM PEPTIDE1{[CCCCCCCCCCCC(=O)[*:2]].Y.E.L}$$$$V2.0) | – | – | Ki [5]: > 80 µM; inhibition [1]: < 10%
– | CCCCCCCCCCCCCC(=O)N[C@H](C(=O)N[C@H](C(=O)N[C@H](C(=O)N[C@@H](Cc1ccc(O)cc1)C(=O)N[C@@H](CCCCN)C(=O)N[C@@H](Cc1ccccc1)C(=O)O)[C@@H](C)O)C(C)C)[C@@H](C)O (HELM PEPTIDE1{[CCCCCCCCCCCCCC(=O)[*:2]].T.V.T.Y.K.F}$$$$V2.0) | – | – | Ki [5]: 80 µM; Activity [6]: 1.2
– | CCCCCCCCCCCCCCCC(=O)N[C@@H](Cc1ccccc1)C(=O)N[C@@H](CCCCN)C(=O)N[C@@H](Cc1ccccc1)C(=O)O (HELM PEPTIDE1{[CCCCCCCCCCCCCCCC(=O)[*:2]].F.K.F}$$$$V2.0) | – | 30 | Ki [5]: > 80 µM; inhibition [3]: < 10%
– | CCCCCCCCCCCCCCCC(=O)N[C@H](C(=O)N[C@H](C(=O)N[C@H](C(=O)N[C@@H](Cc1ccccc1)C(=O)N[C@@H](CC(=O)O)C(=O)N[C@@H](Cc1ccc(O)cc1)C(=O)O)[C@@H](C)O)[C@@H](C)CC)[C@@H](C)O (HELM PEPTIDE1{[CCCCCCCCCCCCCCCC(=O)[*:2]].T.I.T.F.D.Y}$$$$V2.0) | < 10 | 80 | Activity [6]: 1.5
– | CCCCCCCCCCCCCCCC(=O)N[C@@H](Cc1ccc(O)cc1)C(=O)N[C@@H](CCCCN)C(=O)N[C@@H](Cc1ccccc1)C(=O)O (HELM PEPTIDE1{[CCCCCCCCCCCCCCCC(=O)[*:2]].Y.K.F}$$$$V2.0) | – | 81 | Ki [5]: > 80 µM; inhibition [3]: < 10%
– | CCCCCCCCCCCCCCCC(=O)N[C@@H](Cc1ccc(O)cc1)C(=O)N[C@@H](CC(N)=O)C(=O)N[C@H](C(=O)O)[C@@H](C)O (HELM PEPTIDE1{[CCCCCCCCCCCCCCCC(=O)[*:2]].Y.N.T}$$$$V2.0) | – | 30 | –
> 625 | H-TISYDY-OH | – | > 625 | inhibition [7]: < 10%
> 625 | H-TITFDY-OH | – | > 625 | inhibition [7]: < 10%
> 625 | H-TVSYKF-OH | – | > 625 | inhibition [7]: < 10%
> 625 | H-TVTYKY-OH | – | > 625 | inhibition [7]: < 10%

Compound | Ki (Proteasome component C5) [µM] | inhibition [2] [%] | Ki [4] [µM] | other results
CCCCCCCC(=O)N[C@H](C(=O)N[C@H](C(=O)N[C@H](C(=O)N[C@@H](Cc1ccccc1)C(=O)N[C@@H](CC(=O)O)C(=O)N[C@@H](Cc1ccc(O)cc1)C(=O)O)[C@@H](C)O)[C@@H](C)CC)[C@@H](C)O (HELM PEPTIDE1{[CCCCCCCC(=O)[*:2]].T.I.T.F.D.Y}$$$$V2.0) | > 80 | < 10 | 43 | –
CCCCCCCCCCCCCCC(N)C(=O)N[C@@H](Cc1ccc(O)cc1)C(=O)N[C@@H](CCC(=O)O)C(=O)N[C@H](C(=O)O)[C@@H](C)O (stereo not given in full) (HELM PEPTIDE1{[CCCCCCCCCCCCCCC(N)C(=O)[*:2]].Y.E.T}$$$$V2.0) | 8 | – | 5 | –
CCCCCCCCCCCCCCCC(=O)N[C@@H](Cc1ccc(O)cc1)C(=O)N[C@@H](CC(=O)O)C(=O)N[C@@H](CC(C)C)C(=O)O (HELM PEPTIDE1{[CCCCCCCCCCCCCCCC(=O)[*:2]].Y.D.L}$$$$V2.0) | 15 | – | 20 | Ki [5]: > 80 µM
CCCCCCCCCCCCCCCC(=O)N[C@@H](Cc1ccc(O)cc1)C(=O)N[C@@H](CCC(=O)O)C(=O)N[C@@H](CC(C)C)C(=O)O (HELM PEPTIDE1{[CCCCCCCCCCCCCCCC(=O)[*:2]].Y.E.L}$$$$V2.0) | 15 | – | 18 | Ki [5]: > 80 µM
CCCCCCCCCCCCCCCC(=O)N[C@@H](Cc1ccc(O)cc1)C(=O)N[C@@H](CCC(=O)O)C(=O)N[C@H](C(=O)O)[C@@H](C)O (HELM PEPTIDE1{[CCCCCCCCCCCCCCCC(=O)[*:2]].Y.E.T}$$$$V2.0) | 21 | – | 20 | –
H-TITYDL-OH | > 625 | – | 619 | inhibition [7]: < 10%
H-TVTFKF-OH | 148 | – | 139 | inhibition [7]: < 10%
